{"source": "paper PMC7674646", "about": "“Structural and Functional Analyses of the Transcription Repressor DgoR From Escherichia coli Reveal a Divalent Metal-Containing D-Galactonate Binding Pocket” (Frontiers in Microbiology, 2020)", "key": {"WT-EcoDgoR": {"molecular_target": "WT-EcoDgoR (Escherichia coli, UniProt P31460)", "sequence (P31460 whole entry)": "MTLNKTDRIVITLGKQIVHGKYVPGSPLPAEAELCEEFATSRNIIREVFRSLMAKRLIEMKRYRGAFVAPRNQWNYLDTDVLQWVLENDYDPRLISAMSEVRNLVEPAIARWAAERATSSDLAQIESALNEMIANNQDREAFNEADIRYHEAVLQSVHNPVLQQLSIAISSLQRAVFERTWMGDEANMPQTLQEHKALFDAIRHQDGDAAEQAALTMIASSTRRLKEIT", "assay": "MST binding assay, D-galactonate to wild-type EcoDgoR", "method": "(§1) His-tagged DgoR and its derivatives were labeled with the NT-647-NHS dye using the Monolith NT^TM Protein Labeling Kit RED-NHS (NanoTemper Technologies) ([Magnez et al., 2017]; [Welsch et al., 2017]). Serially diluted unlabeled proteins and 100 nM of labeled DgoR or its derivatives were incubated for 15 min at room temperature in binding buffer (1.8 mM KH2PO4, 10 mM Na2HPO4, 137 mM NaCl, 2.7 mM KCl, and 0.05% Tween-20, pH 7.8) in a final volume of 20 μL. Subsequently, samples were loaded into NT.115 premium coated capillaries (NanoTemper Technologies). Binding experiments were performed using a Monolith NT.115 Pico apparatus (NanoTemper Technologies) with the following parameters: LED power 5 %, MST Power high. MST traces were analyzed between 4.00 and 5.00 s after turning on the IR-Laser. Measurements were carried out with D-galactonate. For each experiment, the unlabeled proteins were produced from independent preparations. Results were obtained with the MO Control software version 1.6. MO Affinity Analysis software version 2.3 was used to determine the fraction of the formed complex. Apparent dissociation constants (Kd) were calculated using nonlinear fitting assuming one specific binding site with the GraphPad Prism 7 software with the following formula\n(§2) (whereBisMaxthemaximumtheoreticalspecificbinding,hereB=Max1)."}, "EcoDgoR W181A": {"molecular_target": "EcoDgoR W181A (Escherichia coli, UniProt P31460, W181A)", "sequence (P31460 whole entry W181A)": "as the sequence (P31460 whole entry) above, with W181A counted along it", "assay": "MST binding assay, EcoDgoR W181A mutant", "method": "as §1, §2"}, "EcoDgoR R224A": {"molecular_target": "EcoDgoR R224A (Escherichia coli, UniProt P31460, R224A)", "sequence (P31460 whole entry R224A)": "as the sequence (P31460 whole entry) above, with R224A counted along it", "assay": "MST binding assay, EcoDgoR R224A mutant", "method": "as §1, §2"}, "EcoDgoR H150A": {"molecular_target": "EcoDgoR H150A (Escherichia coli, UniProt P31460, H150A)", "sequence (P31460 whole entry H150A)": "as the sequence (P31460 whole entry) above, with H150A counted along it", "assay": "MST binding assay, EcoDgoR H150A mutant", "method": "as §1, §2"}, "EcoDgoR T191A": {"molecular_target": "EcoDgoR T191A (Escherichia coli, UniProt P31460, T191A)", "sequence (P31460 whole entry T191A)": "as the sequence (P31460 whole entry) above, with T191A counted along it", "assay": "MST binding assay, EcoDgoR T191A mutant", "method": "as §1, §2"}, "EcoDgoR R102A": {"molecular_target": "EcoDgoR R102A (Escherichia coli, UniProt P31460, R102A)", "sequence (P31460 whole entry R102A)": "as the sequence (P31460 whole entry) above, with R102A counted along it", "assay": "MST binding assay, EcoDgoR R102A mutant", "method": "as §1, §2"}, "[1]": {"molecular_target": "EcoDgoR / dgo cis-acting element (Escherichia coli, UniProt P31460)", "sequence (P31460 whole entry)": "as the sequence (P31460 whole entry) above", "assay": "EMSA of WT EcoDgoR with dgo cis-acting element", "format": "biochemical", "conditions": "for effect on stability of EcoDgoR/DNA complex (EMSA): EDTA-treated EcoDgoR, 0.5 mM sugar plus divalent metal cation (Zn2+, Ca2+ or Mg2+); for effect on EcoDgoR/DNA complex (EMSA): EcoDgoR pre-incubated with 5 mM EDTA, sugar alone (0.5 mM), no metal added; for effect on DNA bound by EcoDgoR (EMSA): WT EcoDgoR, 0.5 mM sugar", "excerpt": "(§3) For expression of the recombinant DgoR mutants (i.e., R102A, D146A, H150A, Q173A, R179A, W181A, D184A, T191A, H195A, S221A, R224A, and R224E), the wild-type E. coli dgoR gene on the expression plasmid pET28a was mutated using the site-directed mutagenesis method. The dgo cis-acting element region of E. coli K12 was generated by PCR and subsequently inserted into the HincII site of pUC18. The obtained plasmid was used as the template for preparation of the Cy5-labeled probes using the universal primer pair of Cy5-labeled dgoRcis-acting_F and dgoRcis-acting_R. Cy5-labeled probe (100 ng) was incubated with different amounts of dgoR or its mutants at 25°C for 20 min in a buffer comprising of 25 mM Tris-HCl (pH 8.0), 50 mM KCl, 2.5 mM MgCl2, 5% glycerol, 1 mM dithiothreitol (DTT), and 100 μg/mL sonicated salmon sperm DNA (Sangon) (total volume 20 μl). The resulting DNA-protein complexes were subjected to electrophoresis on native PAGE gels at 100 V, 4°C for 2.5 h in a running buffer containing 25 mM Tris-HCl (pH 7.8) and 250 mM glycine. After electrophoresis, gels were directly scanned for fluorescent DNAs using an ImageQuantTM LAS 4000 system (GE Healthcare). For EMSAs in the presence or absence of D-galactonate or D-glucose, 0.5 mM D-galactonate or D-glucose was applied."}, "[2]": {"molecular_target": "EcoDgoR R179A / dgo cis-acting element (Escherichia coli, UniProt P31460, R179A)", "sequence (P31460 whole entry R179A)": "as the sequence (P31460 whole entry) above, with R179A counted along it", "assay": "EMSA of EcoDgoR R179A with dgo cis-acting element", "format": "biochemical", "conditions": "presence vs absence of 0.5 mM D-galactonate", "excerpt": "as §3"}, "[3]": {"molecular_target": "EcoDgoR W181A / dgo cis-acting element (Escherichia coli, UniProt P31460, W181A)", "sequence (P31460 whole entry W181A)": "as the sequence (P31460 whole entry) above, with W181A counted along it", "assay": "EMSA of EcoDgoR W181A with dgo cis-acting element", "format": "biochemical", "conditions": "presence vs absence of 0.5 mM D-galactonate", "excerpt": "as §3"}, "[4]": {"molecular_target": "EcoDgoR Q173A / dgo cis-acting element (Escherichia coli, UniProt P31460, Q173A)", "sequence (P31460 whole entry Q173A)": "as the sequence (P31460 whole entry) above, with Q173A counted along it", "assay": "EMSA of EcoDgoR Q173A with dgo cis-acting element", "format": "biochemical", "conditions": "Q173A 8 μM, 0.5 mM D-galactonate", "excerpt": "as §3"}, "[5]": {"molecular_target": "EcoDgoR R102A / dgo cis-acting element (Escherichia coli, UniProt P31460, R102A)", "sequence (P31460 whole entry R102A)": "as the sequence (P31460 whole entry) above, with R102A counted along it", "assay": "EMSA of EcoDgoR R102A with dgo cis-acting element", "format": "biochemical", "conditions": "R102A 8 μM, 0.5 mM D-galactonate", "excerpt": "as §3"}, "[6]": {"molecular_target": "EcoDgoR D184A / dgo cis-acting element (Escherichia coli, UniProt P31460, D184A)", "sequence (P31460 whole entry D184A)": "as the sequence (P31460 whole entry) above, with D184A counted along it", "assay": "EMSA of EcoDgoR D184A with dgo cis-acting element", "format": "biochemical", "conditions": "D184A 8 μM, 0.5 mM D-galactonate", "excerpt": "as §3"}, "[7]": {"molecular_target": "EcoDgoR T191A / dgo cis-acting element (Escherichia coli, UniProt P31460, T191A)", "sequence (P31460 whole entry T191A)": "as the sequence (P31460 whole entry) above, with T191A counted along it", "assay": "EMSA of EcoDgoR T191A with dgo cis-acting element", "format": "biochemical", "conditions": "T191A 8 μM, 0.5 mM D-galactonate", "excerpt": "as §3"}, "[8]": {"molecular_target": "EcoDgoR H150A / dgo cis-acting element (Escherichia coli, UniProt P31460, H150A)", "sequence (P31460 whole entry H150A)": "as the sequence (P31460 whole entry) above, with H150A counted along it", "assay": "EMSA of EcoDgoR H150A with dgo cis-acting element", "format": "biochemical", "conditions": "0.5 mM D-galactonate", "excerpt": "as §3"}, "[9]": {"molecular_target": "EcoDgoR H195A / dgo cis-acting element (Escherichia coli, UniProt P31460, H195A)", "sequence (P31460 whole entry H195A)": "as the sequence (P31460 whole entry) above, with H195A counted along it", "assay": "EMSA of EcoDgoR H195A with dgo cis-acting element", "format": "biochemical", "conditions": "0.5 mM D-galactonate", "excerpt": "as §3"}, "[10]": {"molecular_target": "EcoDgoR R224A / dgo cis-acting element (Escherichia coli, UniProt P31460, R224A)", "sequence (P31460 whole entry R224A)": "as the sequence (P31460 whole entry) above, with R224A counted along it", "assay": "EMSA of EcoDgoR R224A with dgo cis-acting element", "format": "biochemical", "conditions": "0.5 mM D-galactonate", "excerpt": "as §3"}, "[11]": {"molecular_target": "EcoDgoR R224E / dgo cis-acting element (Escherichia coli, UniProt P31460, R224E)", "sequence (P31460 whole entry R224E)": "as the sequence (P31460 whole entry) above, with R224E counted along it", "assay": "EMSA of EcoDgoR R224E with dgo cis-acting element", "format": "biochemical", "conditions": "0.5 mM D-galactonate", "excerpt": "as §3"}, "[12]": {"molecular_target": "EcoDgoR D146A / dgo cis-acting element (Escherichia coli, UniProt P31460, D146A)", "sequence (P31460 whole entry D146A)": "as the sequence (P31460 whole entry) above, with D146A counted along it", "assay": "EMSA of EcoDgoR D146A with dgo cis-acting element", "format": "biochemical", "conditions": "supplementation of D-galactonate", "excerpt": "as §3"}, "[13]": {"molecular_target": "EcoDgoR S221A / dgo cis-acting element (Escherichia coli, UniProt P31460, S221A)", "sequence (P31460 whole entry S221A)": "as the sequence (P31460 whole entry) above, with S221A counted along it", "assay": "EMSA of EcoDgoR S221A with dgo cis-acting element", "format": "biochemical", "conditions": "supplementation of D-galactonate", "excerpt": "as §3"}}, "note": "Where “and” joins values, the source holds several entries; their conditions need not be identical. Equal values may be shown once."}
{"smiles": "O=C(O)[C@H](O)[C@@H](O)[C@@H](O)[C@H](O)CO", "note": "[D-galactonate]", "values": [{"measurement": "Kd", "setting": "WT-EcoDgoR; WT EcoDgoR 100 nM, D-galactonate 305 nM to 10 mM", "result": "~0.22 mM and 0.22 mM"}, {"measurement": "Kd", "setting": "WT-EcoDgoR; WT EcoDgoR after EDTA incubation", "result": "30 ± 20.3", "unit": "mM"}, {"measurement": "Kd", "setting": "EcoDgoR W181A", "result": "> 50", "unit": "mM"}, {"measurement": "interaction with D-galactonate (MST)", "setting": "EcoDgoR W181A; W181A mutant", "result": "did not interact"}, {"measurement": "Kd", "setting": "EcoDgoR R224A", "result": "> 50", "unit": "mM"}, {"measurement": "interaction with D-galactonate (MST)", "setting": "EcoDgoR R224A; R224A mutant", "result": "did not interact"}, {"measurement": "Kd", "setting": "EcoDgoR H150A", "result": "4.99 ± 1.02", "unit": "mM"}, {"measurement": "Kd", "setting": "EcoDgoR T191A", "result": "> 50", "unit": "mM"}, {"measurement": "interaction with D-galactonate (MST)", "setting": "EcoDgoR T191A; T191A mutant", "result": "did not interact"}, {"measurement": "Kd", "setting": "EcoDgoR R102A", "result": "> 50", "unit": "mM"}, {"measurement": "interaction with D-galactonate (MST)", "setting": "EcoDgoR R102A; R102A mutant", "result": "did not interact"}, {"measurement": "effect on stability of EcoDgoR/DNA complex (EMSA)", "setting": "[1]", "result": "decreased the stability of EcoDgoR/DNA complex"}, {"measurement": "effect on EcoDgoR/DNA complex (EMSA)", "setting": "[1]", "result": "didn’t disrupt the formation of stable protein/DNA complexes"}, {"measurement": "effect on DNA bound by EcoDgoR (EMSA)", "setting": "[1]", "result": "relieved DNA bound by EcoDgoR in a concentration-dependent manner"}, {"measurement": "effect on DNA binding of mutant (EMSA)", "setting": "[2]", "result": "no significant difference in DNA binding affinity"}, {"measurement": "effect on DNA binding of mutant (EMSA)", "setting": "[3]", "result": "no significant difference in DNA binding affinity"}, {"measurement": "effect on DNA binding of mutant (EMSA)", "setting": "[4]", "result": "restored their DNA binding ability to some extent"}, {"measurement": "effect on DNA binding of mutant (EMSA)", "setting": "[5]", "result": "restored their DNA binding ability to some extent"}, {"measurement": "effect on DNA binding of mutant (EMSA)", "setting": "[6]", "result": "restored their DNA binding ability to some extent"}, {"measurement": "effect on DNA binding of mutant (EMSA)", "setting": "[7]", "result": "restored their DNA binding ability to some extent"}, {"measurement": "effect on DNA binding of mutant (EMSA)", "setting": "[8]", "result": "remain inability to bind DNA"}, {"measurement": "effect on DNA binding of mutant (EMSA)", "setting": "[9]", "result": "remain inability to bind DNA"}, {"measurement": "effect on DNA binding of mutant (EMSA)", "setting": "[10]", "result": "remain inability to bind DNA"}, {"measurement": "effect on DNA binding of mutant (EMSA)", "setting": "[11]", "result": "remain inability to bind DNA"}, {"measurement": "effect on DNA binding of mutant (EMSA)", "setting": "[12]", "result": "slightly decreased their ability to bind DNA"}, {"measurement": "effect on DNA binding of mutant (EMSA)", "setting": "[13]", "result": "slightly decreased their ability to bind DNA"}]}
{"smiles": "OC[C@H]1OC(O)[C@H](O)[C@@H](O)[C@@H]1O", "note": "(stereo partly drawn) [D-glucose]", "values": [{"measurement": "effect on stability of EcoDgoR/DNA complex (EMSA)", "setting": "[1]", "result": "not affected significantly"}, {"measurement": "effect on EcoDgoR/DNA complex (EMSA)", "setting": "[1]", "result": "didn’t disrupt the formation of stable protein/DNA complexes"}, {"measurement": "effect on DNA bound by EcoDgoR (EMSA)", "setting": "[1]", "result": "did not display such effect"}]}
